Source: ChEMBL document CHEMBL1201862, “PubChem BioAssay data set” (2004)
Several values for one entry are separate records, joined by “and”; a condition that tells them apart may be missing. Equal entries are not always repeated. Activity calls are given as the source filed them. Non-standard residues stand in square brackets, D forms with d. Residues, ends and D or L forms follow the SMILES beside them. dChg = N[C@@H](C(=O)O)C1CCCCC1; NMeA = CN[C@@H](C)C(=O)O

Key:
[1] = target: T1, E3 ubiquitin-protein ligase XIAP (Homo sapiens, UniProt P98170); assay: SAR analysis of Antagonists of IAP-family anti-apoptotic proteins. [Related pubchem assays (depositor defined):AID1018, AID1449, AID1513, AID1514, AID1638]
T1 sequence (P98170 whole entry, the tested form may be a part): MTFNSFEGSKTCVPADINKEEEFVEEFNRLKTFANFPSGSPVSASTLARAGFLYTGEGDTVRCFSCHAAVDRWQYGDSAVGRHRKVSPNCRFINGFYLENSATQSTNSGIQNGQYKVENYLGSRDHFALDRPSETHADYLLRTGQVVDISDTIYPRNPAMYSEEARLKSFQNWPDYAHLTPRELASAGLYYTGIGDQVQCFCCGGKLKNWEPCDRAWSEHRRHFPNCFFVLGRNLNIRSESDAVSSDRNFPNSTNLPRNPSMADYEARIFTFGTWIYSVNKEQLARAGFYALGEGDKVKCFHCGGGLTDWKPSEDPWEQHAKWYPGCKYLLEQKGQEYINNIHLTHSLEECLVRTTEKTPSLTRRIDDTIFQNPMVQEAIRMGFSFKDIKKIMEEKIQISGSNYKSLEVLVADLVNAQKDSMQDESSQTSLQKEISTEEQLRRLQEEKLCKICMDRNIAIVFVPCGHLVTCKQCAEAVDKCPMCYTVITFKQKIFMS

[2] = target: T1, E3 ubiquitin-protein ligase XIAP; assay: SAR analysis of Antagonists of XIAP-Bir3 domain of IAP-family anti-apoptotic proteins. [Related pubchem assays (depositor defined):AID1018, AID1449, AID1513, AID1514, AID1638]
Hexokinase HKDC1 = target: T2, Hexokinase HKDC1 (Homo sapiens, UniProt Q2TB90); assay: HKDC1 hexokinase activators, dose response, biochemical, W721R variant (AID 504730); format: functional
T2 sequence (Q2TB90 whole entry): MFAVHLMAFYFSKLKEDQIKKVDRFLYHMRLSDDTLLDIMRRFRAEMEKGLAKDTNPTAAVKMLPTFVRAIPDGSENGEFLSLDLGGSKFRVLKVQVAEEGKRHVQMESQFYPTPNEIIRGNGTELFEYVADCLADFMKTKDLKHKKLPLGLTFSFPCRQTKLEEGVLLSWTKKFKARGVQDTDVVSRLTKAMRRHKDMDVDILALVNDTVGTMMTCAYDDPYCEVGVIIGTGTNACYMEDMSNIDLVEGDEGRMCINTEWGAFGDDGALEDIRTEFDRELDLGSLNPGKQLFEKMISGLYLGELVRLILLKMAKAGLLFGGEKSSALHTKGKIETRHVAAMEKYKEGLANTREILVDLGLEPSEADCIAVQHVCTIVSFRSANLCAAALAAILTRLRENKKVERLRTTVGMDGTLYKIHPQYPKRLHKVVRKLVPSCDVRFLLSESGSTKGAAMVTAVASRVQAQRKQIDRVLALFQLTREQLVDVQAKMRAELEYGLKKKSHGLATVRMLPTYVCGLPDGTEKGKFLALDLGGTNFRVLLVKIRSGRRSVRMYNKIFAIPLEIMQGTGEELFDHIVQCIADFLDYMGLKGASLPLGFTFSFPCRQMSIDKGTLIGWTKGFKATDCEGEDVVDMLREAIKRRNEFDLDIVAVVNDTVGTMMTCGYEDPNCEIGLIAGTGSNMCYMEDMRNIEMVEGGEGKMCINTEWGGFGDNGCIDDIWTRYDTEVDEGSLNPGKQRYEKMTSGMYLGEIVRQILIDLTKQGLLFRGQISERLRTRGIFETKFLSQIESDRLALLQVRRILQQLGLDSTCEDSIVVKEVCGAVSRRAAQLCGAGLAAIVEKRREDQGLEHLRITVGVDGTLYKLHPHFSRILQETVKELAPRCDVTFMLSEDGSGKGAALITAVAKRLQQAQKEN

Hexokinase-1 = Hexokinase-1 (Homo sapiens, UniProt P19367); assay: hexokinase 1 activators, dose response, selectivity assay for HKDC1 activator project, biochemical (AID 504762); format: functional
Sequence of Hexokinase-1 (P19367 whole entry): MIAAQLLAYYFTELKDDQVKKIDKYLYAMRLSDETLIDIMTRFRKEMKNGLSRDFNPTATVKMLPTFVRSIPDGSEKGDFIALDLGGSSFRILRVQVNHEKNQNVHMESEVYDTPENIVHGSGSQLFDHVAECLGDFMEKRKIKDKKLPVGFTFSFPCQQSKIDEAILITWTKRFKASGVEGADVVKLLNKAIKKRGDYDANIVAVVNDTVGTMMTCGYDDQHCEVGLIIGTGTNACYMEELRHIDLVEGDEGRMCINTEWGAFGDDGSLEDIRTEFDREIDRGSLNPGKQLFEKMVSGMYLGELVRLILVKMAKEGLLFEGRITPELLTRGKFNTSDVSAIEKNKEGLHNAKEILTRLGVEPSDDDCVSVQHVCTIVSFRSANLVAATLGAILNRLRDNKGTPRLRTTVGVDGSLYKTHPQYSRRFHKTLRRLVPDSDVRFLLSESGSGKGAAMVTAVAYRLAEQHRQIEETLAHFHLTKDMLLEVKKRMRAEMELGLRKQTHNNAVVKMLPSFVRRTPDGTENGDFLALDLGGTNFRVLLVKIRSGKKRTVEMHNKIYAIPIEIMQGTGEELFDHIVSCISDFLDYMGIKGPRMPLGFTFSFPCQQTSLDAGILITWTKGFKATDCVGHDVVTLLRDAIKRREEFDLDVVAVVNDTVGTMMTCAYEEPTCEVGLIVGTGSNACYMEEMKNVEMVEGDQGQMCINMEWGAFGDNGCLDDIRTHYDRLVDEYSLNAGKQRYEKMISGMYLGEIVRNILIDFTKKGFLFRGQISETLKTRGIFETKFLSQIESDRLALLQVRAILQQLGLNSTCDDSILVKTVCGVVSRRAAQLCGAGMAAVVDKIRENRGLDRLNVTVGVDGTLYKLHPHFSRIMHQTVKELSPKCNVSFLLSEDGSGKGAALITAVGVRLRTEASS

Nonstructural protein 1 = Nonstructural protein 1 (Influenza A virus, UniProt Q194T2); format: functional, Influenza A virus (A/California/07/2009(H1N1))
Sequence of Nonstructural protein 1 (Q194T2 whole entry): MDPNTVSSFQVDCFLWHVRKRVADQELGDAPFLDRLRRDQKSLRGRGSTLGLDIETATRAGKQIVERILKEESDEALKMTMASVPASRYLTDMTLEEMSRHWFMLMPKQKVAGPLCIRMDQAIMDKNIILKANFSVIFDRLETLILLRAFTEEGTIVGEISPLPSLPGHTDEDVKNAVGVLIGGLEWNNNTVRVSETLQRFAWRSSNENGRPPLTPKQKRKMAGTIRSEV

[3] = target: Intestinal-type alkaline phosphatase (Homo sapiens, UniProt P09923); assay: human intestinal alkaline phosphatase activators, dose response, biochemical, luminescence, uHTS hits (AID 463120); format: functional
Sequence of Intestinal-type alkaline phosphatase (P09923 whole entry): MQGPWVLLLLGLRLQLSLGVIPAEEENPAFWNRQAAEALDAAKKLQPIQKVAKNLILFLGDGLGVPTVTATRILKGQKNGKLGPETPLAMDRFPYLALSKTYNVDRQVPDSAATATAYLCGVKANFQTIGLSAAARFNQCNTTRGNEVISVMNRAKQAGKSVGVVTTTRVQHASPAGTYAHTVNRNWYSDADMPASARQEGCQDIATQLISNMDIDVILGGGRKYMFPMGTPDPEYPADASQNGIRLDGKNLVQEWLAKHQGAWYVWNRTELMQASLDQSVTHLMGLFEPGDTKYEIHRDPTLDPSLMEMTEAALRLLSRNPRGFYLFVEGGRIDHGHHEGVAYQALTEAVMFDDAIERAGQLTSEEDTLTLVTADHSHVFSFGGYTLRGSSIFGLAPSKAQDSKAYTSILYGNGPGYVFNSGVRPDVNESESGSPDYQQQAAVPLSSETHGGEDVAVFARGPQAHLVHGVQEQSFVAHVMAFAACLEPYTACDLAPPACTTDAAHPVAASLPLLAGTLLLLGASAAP

[4] = target: T3, Sphingosine 1-phosphate receptor 4 (Homo sapiens, UniProt O95977); assay: S1P4 receptor agonists, human, late-stage follow-up, cell-based, fluorescence, synthesized compounds (AID 463107); format: functional
T3 sequence (O95977 whole entry): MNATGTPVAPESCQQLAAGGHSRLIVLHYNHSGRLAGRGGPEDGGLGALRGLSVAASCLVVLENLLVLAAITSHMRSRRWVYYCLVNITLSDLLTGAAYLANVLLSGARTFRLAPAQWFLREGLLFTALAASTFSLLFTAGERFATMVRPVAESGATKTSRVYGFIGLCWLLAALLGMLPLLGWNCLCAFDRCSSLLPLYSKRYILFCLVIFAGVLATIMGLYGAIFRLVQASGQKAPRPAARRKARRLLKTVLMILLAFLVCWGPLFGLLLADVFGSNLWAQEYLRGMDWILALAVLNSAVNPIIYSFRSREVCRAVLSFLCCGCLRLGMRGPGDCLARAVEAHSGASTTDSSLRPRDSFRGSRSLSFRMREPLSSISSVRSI

[5] = target: T3, Sphingosine 1-phosphate receptor 4; assay: Late-stage fluorescence dose response cell-based assay to identify agonists of the Sphingosine 1-Phosphate Receptor 4 (S1P4): purchased compounds EC50. [Related pubchem assays (depositor defined):AID1509, AID1523, AID1563, AID1686, AID1701, AID1801]; format: functional
SUMO-activating enzyme = SUMO-activating enzyme (Homo sapiens, UniProt Q9UBT2); assay: SUMOylation inhibitor hit validation, confirmation, SUMOylation inhibitor project, biochemical, AlphaScreen (AID 2018); format: functional
[6] = target: T4, Runt-related transcription factor 1/Core-binding factor subunit beta (Homo sapiens, UniProt Q01196+Q13951); assay: inhibitors of RUNX1 Runt–CBFb-SMMHC binding, primary screen, biochemical, FRET, Cerulean-Runt, Venus-CBFb-SMMHC, uHTS (AID 1434); format: protein assay;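 further: partner is the CBFb-SMMHC leukemia fusion protein rather than wild-type CBFb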
T4 sequence (Q01196 whole entry, the tested form may be a part): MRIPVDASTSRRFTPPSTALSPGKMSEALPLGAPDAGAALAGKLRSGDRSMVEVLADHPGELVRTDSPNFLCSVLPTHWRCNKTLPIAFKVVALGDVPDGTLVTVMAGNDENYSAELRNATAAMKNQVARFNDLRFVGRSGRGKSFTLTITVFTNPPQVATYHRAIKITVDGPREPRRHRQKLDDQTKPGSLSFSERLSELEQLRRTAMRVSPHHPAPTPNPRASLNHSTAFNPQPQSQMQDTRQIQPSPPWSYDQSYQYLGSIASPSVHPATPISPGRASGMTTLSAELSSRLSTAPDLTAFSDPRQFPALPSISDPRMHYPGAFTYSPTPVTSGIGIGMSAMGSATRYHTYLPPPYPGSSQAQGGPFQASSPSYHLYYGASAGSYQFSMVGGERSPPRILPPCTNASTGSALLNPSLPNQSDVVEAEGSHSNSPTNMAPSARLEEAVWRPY
T4 sequence (Q13951 whole entry, the tested form may be a part): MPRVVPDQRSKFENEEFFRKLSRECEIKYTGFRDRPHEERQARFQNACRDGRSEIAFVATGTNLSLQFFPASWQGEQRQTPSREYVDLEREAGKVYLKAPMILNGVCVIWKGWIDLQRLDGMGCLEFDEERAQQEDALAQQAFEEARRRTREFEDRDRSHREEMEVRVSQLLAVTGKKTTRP

[7] = target: T4, Runt-related transcription factor 1/Core-binding factor subunit beta; assay: inhibitors of RUNX1 Runt–CBFb-SMMHC binding, biochemical, TR-FRET (AID 1438); format: protein assay
X-box-binding protein 1 = target: T5, X-box-binding protein 1 (Homo sapiens, UniProt P17861); format: functional, Cricetulus griseus;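 further: confirmatory dose-response counter-screen serving a CHOP assay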
T5 sequence (P17861 whole entry): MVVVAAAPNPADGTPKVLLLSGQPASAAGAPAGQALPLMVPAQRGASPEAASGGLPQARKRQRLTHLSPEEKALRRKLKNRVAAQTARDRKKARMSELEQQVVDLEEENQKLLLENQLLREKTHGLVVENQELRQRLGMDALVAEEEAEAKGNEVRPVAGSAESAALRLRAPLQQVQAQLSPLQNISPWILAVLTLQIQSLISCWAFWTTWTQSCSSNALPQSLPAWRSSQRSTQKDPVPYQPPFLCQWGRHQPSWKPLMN

[8] = target: DNA damage-inducible transcript 3 protein (Mus musculus, UniProt P35639); format: functional, Cricetulus griseus
Sequence of DNA damage-inducible transcript 3 protein (P35639 whole entry): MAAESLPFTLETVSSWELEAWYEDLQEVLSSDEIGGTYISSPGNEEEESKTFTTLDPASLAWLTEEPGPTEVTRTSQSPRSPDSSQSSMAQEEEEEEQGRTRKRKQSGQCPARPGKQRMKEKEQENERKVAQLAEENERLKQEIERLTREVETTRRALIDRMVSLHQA

Procathepsin L = Procathepsin L (Homo sapiens, UniProt P07711)
Sequence of Procathepsin L (P07711 whole entry): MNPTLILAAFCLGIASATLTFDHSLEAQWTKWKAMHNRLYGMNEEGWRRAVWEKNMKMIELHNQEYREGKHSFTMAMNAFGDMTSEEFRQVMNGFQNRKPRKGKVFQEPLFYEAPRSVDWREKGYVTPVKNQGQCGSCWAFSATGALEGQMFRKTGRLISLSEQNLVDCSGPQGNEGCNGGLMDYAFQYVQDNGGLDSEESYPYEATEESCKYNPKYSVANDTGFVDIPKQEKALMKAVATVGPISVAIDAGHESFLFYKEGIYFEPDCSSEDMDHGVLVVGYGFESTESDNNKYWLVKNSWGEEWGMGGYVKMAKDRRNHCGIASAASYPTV

[9] = target: T1, E3 ubiquitin-protein ligase XIAP; assay: XIAP antagonists, biochemical, IAP family, fluorescence polarization (AID 1018); format: functional
[10] = target: T1, E3 ubiquitin-protein ligase XIAP; assay: Counter Screen using XIAP-Bir3 for Chemical Antagonists of Bir1/2 domains of IAP-family anti-apoptotic proteins. [Related pubchem assays (depositor defined):AID1018, AID1449, AID1514, AID1638, AID1749, AID1750, AID488957, AID488963]
Aspartyl aminopeptidase = Aspartyl aminopeptidase (Plasmodium falciparum 3D7, UniProt Q8I2J3)
Sequence of Aspartyl aminopeptidase (Q8I2J3 whole entry): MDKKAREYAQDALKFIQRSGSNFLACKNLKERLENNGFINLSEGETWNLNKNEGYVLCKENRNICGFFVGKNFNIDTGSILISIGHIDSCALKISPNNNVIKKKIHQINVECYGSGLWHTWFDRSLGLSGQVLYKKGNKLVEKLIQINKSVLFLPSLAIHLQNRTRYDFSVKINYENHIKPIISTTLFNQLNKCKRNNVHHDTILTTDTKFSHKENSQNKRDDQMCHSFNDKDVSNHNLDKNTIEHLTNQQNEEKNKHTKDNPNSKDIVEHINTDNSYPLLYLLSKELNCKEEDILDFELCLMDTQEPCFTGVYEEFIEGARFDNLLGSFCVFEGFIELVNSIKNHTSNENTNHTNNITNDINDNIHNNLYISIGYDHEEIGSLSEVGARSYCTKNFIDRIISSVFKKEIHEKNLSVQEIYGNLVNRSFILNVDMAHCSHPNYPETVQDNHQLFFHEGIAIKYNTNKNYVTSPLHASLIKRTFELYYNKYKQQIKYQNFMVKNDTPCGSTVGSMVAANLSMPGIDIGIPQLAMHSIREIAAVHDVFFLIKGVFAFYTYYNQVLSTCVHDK

[11] = HEK293T cell cytotoxicity, dose response, cytotoxicity control for HIV Vif inhibitor project, cherry-picks (AID 652208); format: functional, cell-based
[12] = target: T6, Kappa-type opioid receptor (Homo sapiens, UniProt P41145); assay: SAR analysis of small molecule agonists of the kappa opioid receptor via a luminescent beta-arrestin assay - Set 2. [Related pubchem assays (depositor defined):AID1777, AID1785, AID1786, AID1966, AID2133, AID2136, AID2284, AID449737]; format: functional
T6 sequence (P41145 whole entry): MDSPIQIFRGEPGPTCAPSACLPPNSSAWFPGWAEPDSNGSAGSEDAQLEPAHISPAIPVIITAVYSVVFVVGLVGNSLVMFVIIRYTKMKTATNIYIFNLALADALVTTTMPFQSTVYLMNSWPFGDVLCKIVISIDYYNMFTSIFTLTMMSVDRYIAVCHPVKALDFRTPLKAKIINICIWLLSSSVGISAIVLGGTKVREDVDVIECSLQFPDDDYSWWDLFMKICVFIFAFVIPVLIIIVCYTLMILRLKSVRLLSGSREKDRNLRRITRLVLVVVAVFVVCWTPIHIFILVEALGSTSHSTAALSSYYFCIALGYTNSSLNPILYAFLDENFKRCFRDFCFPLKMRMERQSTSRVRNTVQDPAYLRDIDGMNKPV

[13] = target: Delta-type opioid receptor (Homo sapiens, UniProt P41143); assay: SAR Analysis of Antagonists of the DOR Receptor using an Image-Based Assay - Set 2. [Related pubchem assays (depositor defined):AID1777, AID1785, AID1786, AID1966, AID2133, AID2136, AID2284, AID2285, AID2357]; format: functional
Sequence of Delta-type opioid receptor (P41143 whole entry): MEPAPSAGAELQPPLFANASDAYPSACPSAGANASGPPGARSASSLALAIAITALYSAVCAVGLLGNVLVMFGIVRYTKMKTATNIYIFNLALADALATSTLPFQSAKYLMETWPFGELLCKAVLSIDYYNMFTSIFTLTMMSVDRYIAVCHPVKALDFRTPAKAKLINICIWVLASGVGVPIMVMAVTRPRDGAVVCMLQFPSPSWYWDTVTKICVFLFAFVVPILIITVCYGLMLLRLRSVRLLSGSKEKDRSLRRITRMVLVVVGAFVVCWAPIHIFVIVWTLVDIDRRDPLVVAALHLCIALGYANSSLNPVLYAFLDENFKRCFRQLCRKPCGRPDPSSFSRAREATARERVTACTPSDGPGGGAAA

[14] = target: T6, Kappa-type opioid receptor; assay: SAR analysis of Antagonists of the Kappa Opioid Receptor (KOR) using an Image-Based Assay - Set 2. [Related pubchem assays (depositor defined):AID1777, AID1785, AID1786, AID1966, AID2133, AID2136, AID2284, AID2285, AID2348]; format: functional
Coagulation factor XII = target: T7, Coagulation factor XII (Homo sapiens, UniProt P00748); assay: Factor XIIa Dose Response Confirmation from Single Well HTS. [Related pubchem assays (depositor defined):AID701]; format: functional
T7 sequence (P00748 whole entry): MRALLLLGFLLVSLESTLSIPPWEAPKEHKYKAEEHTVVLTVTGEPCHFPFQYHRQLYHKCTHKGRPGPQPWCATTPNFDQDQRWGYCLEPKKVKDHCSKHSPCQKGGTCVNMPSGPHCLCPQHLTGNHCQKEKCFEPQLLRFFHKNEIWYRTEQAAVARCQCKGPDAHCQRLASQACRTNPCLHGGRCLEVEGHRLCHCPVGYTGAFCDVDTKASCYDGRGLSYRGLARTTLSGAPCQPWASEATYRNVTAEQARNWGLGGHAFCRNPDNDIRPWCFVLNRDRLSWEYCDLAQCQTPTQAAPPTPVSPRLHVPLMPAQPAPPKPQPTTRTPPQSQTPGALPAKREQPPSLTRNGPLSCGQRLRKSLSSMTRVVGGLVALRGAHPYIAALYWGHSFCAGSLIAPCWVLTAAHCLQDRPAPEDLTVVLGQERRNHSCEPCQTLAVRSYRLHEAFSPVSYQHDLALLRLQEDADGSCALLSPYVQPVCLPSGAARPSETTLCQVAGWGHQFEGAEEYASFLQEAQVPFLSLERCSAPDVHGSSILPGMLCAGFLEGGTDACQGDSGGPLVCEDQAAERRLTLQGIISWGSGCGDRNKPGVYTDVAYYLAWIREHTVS

Protein skinhead-1 = target: T8, Protein skinhead-1 (Caenorhabditis elegans, UniProt P34707); format: functional
T8 sequence (P34707 whole entry): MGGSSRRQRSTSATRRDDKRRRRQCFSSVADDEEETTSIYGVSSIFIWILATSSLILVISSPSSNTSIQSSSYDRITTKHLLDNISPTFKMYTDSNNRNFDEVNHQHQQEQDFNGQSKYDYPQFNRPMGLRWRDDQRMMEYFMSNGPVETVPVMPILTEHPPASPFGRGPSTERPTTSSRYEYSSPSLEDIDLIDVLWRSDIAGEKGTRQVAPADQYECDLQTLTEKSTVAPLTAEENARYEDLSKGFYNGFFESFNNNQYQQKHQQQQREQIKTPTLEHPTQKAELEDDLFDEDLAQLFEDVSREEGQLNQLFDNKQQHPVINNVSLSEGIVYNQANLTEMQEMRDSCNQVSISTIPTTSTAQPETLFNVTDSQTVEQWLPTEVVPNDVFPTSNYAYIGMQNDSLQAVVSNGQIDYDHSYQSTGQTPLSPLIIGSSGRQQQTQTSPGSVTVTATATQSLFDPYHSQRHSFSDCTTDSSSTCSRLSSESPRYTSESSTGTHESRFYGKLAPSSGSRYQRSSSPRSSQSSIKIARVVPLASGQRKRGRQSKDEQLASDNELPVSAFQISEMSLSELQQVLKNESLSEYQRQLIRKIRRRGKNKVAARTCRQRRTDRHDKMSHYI

Prothrombin = Prothrombin (Homo sapiens, UniProt P00734); assay: Thrombin 1536 HTS Dose Response Confirmation. [Related pubchem assays: 1046 (Thrombin 1536 HTS; hits were confirmed in this assay)]; format: functional

## CC1CCCc2ccccc21.CN[C@@H](C)C(=O)N[C@@H](C(=O)N1CCC[C@H]1C(N)=O)C1CCCCC1 (H-[NMeA]-[dChg]-Pro-NH2)
[1]
  IC50: > 100 µM (inactive)
[2]
  IC50: > 100 µM (inactive)

## S=C(NN=C(c1ccccc1)c1ccccn1)N(Cc1ccccn1)Cc1ccccn1
Hexokinase HKDC1
  EC50: 1.78 µM (active)
Hexokinase-1
  EC50: > 80 µM (inactive)
Nonstructural protein 1
  IC50: 2.59 µM (active)

## O=C(COc1ccc(Br)cc1)NCCCn1ccnc1
[3]
  EC50: > 100 µM (inactive)

## Cc1ccc(OCCOc2ccc(Br)cc2)c([N+](=O)[O-])n1
[4]
  EC50: > 50 µM (inactive)
[5]
  EC50: 20.7 µM (inactive) and 23.3 µM (inactive)

## N=c1c(S(=O)(=O)c2ccccc2)cc2c(=O)n3ccccc3nc2n1Cc1ccco1
SUMO-activating enzyme
  IC50: 6.01 µM (active)
[6]
  IC50: 3.38 µM (active)
[7]
  IC50: 57.5 µM (inactive)

## Cc1cc(NC(=O)NC2(C(F)(F)F)Oc3ccc(Cl)cc3O2)no1 (centres undefined)
X-box-binding protein 1
  Absolute IC50 (XBP1): < 10 µM
[8]
  Absolute IC50 (CHOP): 10 µM
Procathepsin L
  IC50: > 59.6 µM (not active)
[9]
  IC50: > 100 µM (not active)
[10]
  IC50: > 100 µM (inactive)
Aspartyl aminopeptidase
  IC50: 1.69 µM (active)
[11]
  AC50: 38 µM (active)

## CC[C@](C)(C(=O)Nc1ccc(Br)cc1)N(Cc1ccco1)C(=O)c1ccccn1
[12]
  EC50: 0.0802 µM (active)
[13]
  IC50: > 32 µM (inactive)
[14]
  IC50: > 32 µM (inactive)

## Cc1ccc(C(=O)n2nc(-c3cccnc3)nc2N)cc1
Coagulation factor XII
  IC50: 0.796 µM (active)
Protein skinhead-1
  IC50: > 100 µM (inactive)
Prothrombin
  IC50: 0.543 µM (active)
